# Source: patent US8372580B2, “BRCA1 function-based cellular assays” (Morehouse School of Medicine, priority 2008, dated 2013)
# How the values were obtained:
# [1] = test system: ERα transcriptional activity in T47D breast cancer cells; assay: Cell based assay #2: ERE-luciferase reporter, E2-induced ERα activation by Ubc9 C93S; details: Ubc9 C93S (SUMO-independent), E2 1 μM
# Method: T47D cells (5×10^5) were plated in 6-well plates for 24 hours. The cells were washed twice in PBS followed by the addition of phenol red free DMEM containing 5% charcoal-stripped FBS for 48 hrs before transfection. The cells were transfected with 1 μg of each of the indicated plasmids (with a total of 2.5 μg DNA) using lipofectamine 2000 (Life Technology, USA). The cells were induced with 1 μM of E2 4 hours after transfections, harvested after an additional 40 hrs and assayed for luciferase activity following the manufacturer's instructions. Each set of experiments was performed in triplicate and repeated a least three times.
# Ubc9 = target: T1, Ubc9 (Homo sapiens, UniProt P63279); assay: GST capture (pull-down) assay of binding to Ubc9; details: in vitro translated full length protein
# T1 construct: made in house; host or cells: E. coli
# From the text: GST-Ubc9 and GST-ERα (337-379) were expressed and purified from E. coli as described previously (Wang H, Shao N, Ding O M, Cui J, Reddy E S P, Rao V N: BRCA1 proteins are transported to the nucleus in the absence of serum and splice variants BRCA1a, BRCA1b are tyrosine phosphoprotein that associate with E2F, cyclins and cyclin dependent kinases. Oncogene 15, 143-157: 1997.). For in vitro protein binding assay 35 S-Methionine-labeled in vitro translated full length BRCA1, BRCA1a (Chai Y L, Cui J, Chipitsyna G, Liao B, Lui S, Aysola K et al.: C-Fos oncogene regulator Elk-1 interacts with BRCA1 splice variants BRCA 1a/1b and enhances BRCA1a/1b mediated growth suppression in breast cancer cells. Oncogene 20: 1357-1367, 2001.), BRCA1b, BRCA1 Mut#1, BRCA1 Mut#4, BRCA1 1-182, BRCA1 1-182 Mut#1 and BRCA1 1-182 Mut 4 proteins were diluted in binding buffer (20 mM Tris-HCl (pH7.5), 150 mM NaCl, 0.1% Tween 20). The proteins were precleared with GSH beads for 30 min and then incubated with GST or various GST-ER (337-379) proteins beads for 2 hours at 4° C. The beads were then washed three times with binding buffer followed by elution of the bound proteins with SDS sample buffer and loaded on a 15% SDS-PAGE. The gels were fixed, treated with enhance, dried and exposed 9 to X-ray films) and scanned using a Fuji BioImaging analyzer. […]
# T1 sequence (P63279 whole entry, species assumed): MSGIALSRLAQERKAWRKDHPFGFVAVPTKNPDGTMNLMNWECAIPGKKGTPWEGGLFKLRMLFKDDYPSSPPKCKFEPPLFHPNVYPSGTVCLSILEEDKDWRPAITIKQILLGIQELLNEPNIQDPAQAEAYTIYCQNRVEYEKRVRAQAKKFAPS
Substance,inhibition of E2-mediated ERα transcription activation by Ubc9/C93S [1],binding to Ubc9 (Ubc9)
BRCA1 Mutant #1: BRCA1 point mutant 1; apparently SUMO acceptor site mutation lysine (K) 109 to arginine (R),"unlike their respective Mut #1 and Mut#4, inhibit",–
BRCA1 Mutant #4: full length BRCA1 with RING domain cancer-predisposing mutation C61G,"unlike their respective Mut #1 and Mut#4, inhibit",did not observe any significant binding
BRCA1: full-length product of the BRCA1 (breast cancer 1) tumor suppressor gene,inhibit E2-mediated ERα transcription activation by Ubc9/C93S,–
